The record followed here is patent US6495560B1, “Vitronectin receptor antagonist” (SmithKline Beecham Corporation, priority 1998, dated 2002).

The target in this assay is T1, αvβ3 (vitronectin receptor) (Homo sapiens, UniProt P05106+P06756).
T1 construct: Human placenta or human platelet αvβ3 (0.1-0.3 mg/mL) in buffer T; from tissue; host or cells: human placenta or human platelets
The experiment in a line: Solid-Phase [3H]-SK&F-107260 Binding to αvβ3. The following applies: human placenta or human platelet αvβ3; competition with 5.0 nM [3H]-SK&F-107260; Ki=IC50/(1+L/Kd). Here is the method:
0.1-0.2 μg of αvβ3 was added per well. The plates were incubated overnight at 4° C. At the time of the experiment, the wells were washed once with buffer A and were incubated with 0.1 mL of 3.5% bovine serum albumin in the same buffer for 1 hr at room temperature. Following incubation the wells were aspirated completely and washed twice with 0.2 mL buffer A.
Compound were dissolved in 100% DMSO to give a 2 mM stock solution, which was diluted with binding buffer (15 mM Tris-HCl (pH 7.4), 100 mM NaCl, 1 mM CaCl2, 1 mM MnCl2, 1 mM MgCl2) to a final compound concentration of 100 μM. This solution is then diluted to the required final compound concentration.
The plates were incubated for 1 hr at room temperature. Following incubation the wells were aspirated completely and washed once with 0.2 mL of ice cold buffer A in a well-to-well fashion.

T1 sequence (P06756 31-889 limits assumed): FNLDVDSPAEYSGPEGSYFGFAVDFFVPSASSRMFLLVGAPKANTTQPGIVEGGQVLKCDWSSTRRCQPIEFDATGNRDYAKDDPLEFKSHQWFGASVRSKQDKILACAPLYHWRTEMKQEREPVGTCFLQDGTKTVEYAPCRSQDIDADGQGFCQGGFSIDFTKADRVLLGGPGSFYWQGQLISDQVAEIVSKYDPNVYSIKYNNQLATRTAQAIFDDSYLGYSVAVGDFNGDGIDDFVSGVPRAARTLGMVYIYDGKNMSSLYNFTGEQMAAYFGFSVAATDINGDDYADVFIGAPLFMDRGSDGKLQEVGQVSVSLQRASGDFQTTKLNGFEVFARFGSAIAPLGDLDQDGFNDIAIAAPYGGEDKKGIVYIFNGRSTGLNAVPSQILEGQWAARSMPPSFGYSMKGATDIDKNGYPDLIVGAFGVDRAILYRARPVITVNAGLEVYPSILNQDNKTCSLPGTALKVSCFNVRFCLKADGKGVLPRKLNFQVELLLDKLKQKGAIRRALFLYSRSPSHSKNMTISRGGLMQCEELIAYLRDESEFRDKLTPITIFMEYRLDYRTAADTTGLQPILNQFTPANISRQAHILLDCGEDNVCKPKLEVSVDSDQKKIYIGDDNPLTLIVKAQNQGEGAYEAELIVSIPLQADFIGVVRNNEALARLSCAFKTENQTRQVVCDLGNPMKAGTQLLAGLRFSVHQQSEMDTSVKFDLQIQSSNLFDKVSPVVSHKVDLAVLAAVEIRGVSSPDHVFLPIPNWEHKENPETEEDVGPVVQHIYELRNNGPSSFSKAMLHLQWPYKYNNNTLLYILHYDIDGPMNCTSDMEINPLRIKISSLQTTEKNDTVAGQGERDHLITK
T1 sequence (P06756 891-1048 partner limits assumed): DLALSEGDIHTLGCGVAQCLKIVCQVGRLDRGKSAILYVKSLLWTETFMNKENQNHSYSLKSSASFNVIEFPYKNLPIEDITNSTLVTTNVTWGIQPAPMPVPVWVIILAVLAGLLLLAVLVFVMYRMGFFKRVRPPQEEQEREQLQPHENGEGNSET
T1 sequence (P05106 27-788): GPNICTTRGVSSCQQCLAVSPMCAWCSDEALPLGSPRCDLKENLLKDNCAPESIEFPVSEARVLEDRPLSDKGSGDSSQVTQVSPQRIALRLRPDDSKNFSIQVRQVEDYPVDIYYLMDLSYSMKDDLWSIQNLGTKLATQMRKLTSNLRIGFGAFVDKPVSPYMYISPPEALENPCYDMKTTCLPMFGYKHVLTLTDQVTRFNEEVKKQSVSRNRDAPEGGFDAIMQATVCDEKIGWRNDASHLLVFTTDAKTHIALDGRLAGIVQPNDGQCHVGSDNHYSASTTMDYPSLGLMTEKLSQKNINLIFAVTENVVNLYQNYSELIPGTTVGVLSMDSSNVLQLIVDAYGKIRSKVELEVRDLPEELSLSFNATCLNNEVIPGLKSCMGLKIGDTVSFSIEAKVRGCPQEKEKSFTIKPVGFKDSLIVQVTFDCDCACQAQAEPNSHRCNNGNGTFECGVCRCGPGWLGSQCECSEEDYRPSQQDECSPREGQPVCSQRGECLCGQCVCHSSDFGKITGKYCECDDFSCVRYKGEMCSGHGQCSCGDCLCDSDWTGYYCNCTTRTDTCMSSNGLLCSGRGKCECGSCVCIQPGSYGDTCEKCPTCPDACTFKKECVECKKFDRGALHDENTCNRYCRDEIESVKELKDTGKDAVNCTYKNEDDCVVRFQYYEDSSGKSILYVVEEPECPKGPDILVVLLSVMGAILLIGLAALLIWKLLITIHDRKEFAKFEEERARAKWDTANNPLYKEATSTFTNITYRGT

In the case of `O=C(O)C[C@@H]1Cc2ccc(OCCc3ccc4c(n3)NCCC4)cc2Cc2ccccc21` [Example 1, (S)-10,11-dihydro-3-[2-(5,6,7,8-tetrahydro-1,8-naphthyridin-2-yl)-1-ethoxy]-5H-dibenzo[a,d]cycloheptene-10-acetic acid], the Ki – broadly, the equilibrium dissociation constant of an inhibitor or competing ligand from its target – was roughly 1.7 nM.
